Results as given in patent US20260234630A1, “Methods for Treating Multiple Myeloma” (Celgene Corporation, priority 2022, published 2026).

Tests used:
[1] = test system: acute myeloid leukemia (AML); conditions: administered alone; cited from earlier work
UHRF1 = assay: Protein expression changes by mass spectrometry in H929 cells; type: cell-based; conditions: CC-220 0.1 μM, 24 hr vs DMSO
Protocol: FIG. 1A-1F. Down regulation of UHRF1 transcription by IMiDs correlates with drug sensitivity of multiple myeloma. (1A) Volcano plot of protein expression changes determined by mass spectrometry in H929 cells at 24 hr of treatment with CC-220 (0.1 μM) or DMSO control. X axis, Log2fold change (FC); Y axis, significance,-log 10 [p-value]. […] (1B) Volcano plot of gene expression changes determined by Affymetrix microarray in H929 cells treated with POM (1 μM) or DMSO for 24 hr. X axis, Log2fold change (FC); Y axis, significance,-log 10 [p-value], n=2 technical replicates). […] (1C) Western blot analysis protein expression of UHRF1, Ikaros, Aiolos and ZFP91 in H929 cells treated with 1 μM POM for indicated time. (1D) qRT-PCR analysis of UHRF1 gene expression levels in cells as in (1C). Error bars represent the SEM from duplicate measurements. (1E) Western blot analysis protein expression of UHRF1 and indicated proteins in MM cells treated with DMSO (−) or 1 μM POM (+) for 3 days. GAPDH serves as a loading control. (1F) Thymidine incorporation of various MM cell lines treated with indicated dose of POM for 3 days. Error bars represent the SEM from technical replicates. […]

UHRF1 mRNA = assay: qRT-PCR of UHRF1 gene expression in MM cells; type: cell-based; conditions: drug sensitive MM (FIG. 6 title)
Protocol: FIG. 1A-1F. Down regulation of UHRF1 transcription by IMiDs correlates with drug sensitivity of multiple myeloma. (1A) Volcano plot of protein expression changes determined by mass spectrometry in H929 cells at 24 hr of treatment with CC-220 (0.1 μM) or DMSO control. X axis, Log2fold change (FC); Y axis, significance,-log 10 [p-value]. […] (1B) Volcano plot of gene expression changes determined by Affymetrix microarray in H929 cells treated with POM (1 μM) or DMSO for 24 hr. X axis, Log2fold change (FC); Y axis, significance,-log 10 [p-value], n=2 technical replicates). […] (1C) Western blot analysis protein expression of UHRF1, Ikaros, Aiolos and ZFP91 in H929 cells treated with 1 μM POM for indicated time. (1D) qRT-PCR analysis of UHRF1 gene expression levels in cells as in (1C). Error bars represent the SEM from duplicate measurements. (1E) Western blot analysis protein expression of UHRF1 and indicated proteins in MM cells treated with DMSO (−) or 1 μM POM (+) for 3 days. GAPDH serves as a loading control. (1F) Thymidine incorporation of various MM cell lines treated with indicated dose of POM for 3 days. Error bars represent the SEM from technical replicates.
FIG. 2A-2E. UHRF1 expression is positively regulated by Ikaros and Aiolos in IMiDs sensitive MM cells. (2A) Western blot analysis protein expression of UHRF1, Ikaros, Aiolos, ZFP91 and Cereblon expression in control [shLuciferase (shLuc)] and cereblon knockdown (shCRBN) H929 cells treated with DMSO and 1 μM POM for 3 days. GAPDH, loading control. Arrow head, UHRF1. (2B) qRT-PCR analysis of UHRF1 gene expression levels in cells as in (2A). Data was normalized to ACTB. Error bars represent the SEM of technical duplicates. *** P<0.001 (Two-tailed unpaired Student's t-test). (2C) Western blot analysis protein expression of UHRF1, Ikaros and Aiolos in stably transduced H929 cells after Dox induction (0, 10, 50 or 100 ng/ml) for 3 days of non-target shRNA (shNT) or shRNAs targeting Ikaros (shIKZF1) or Aiolos (shIKZF3). (2D) qRT-PCR analysis of UHRF1 gene expression levels in cells as in (2C). Shown are cells induced with Dox (50 ng/ml) for 3 days. Data was normalized to GAPDH. Error bars represent the SEM of technical duplicates. *P<0.05, ** P<0.01, *** P<0.001, **** P<0.0001 (Two-tailed unpaired Student's t-test). (2E) ChIP-qPCR analysis of the occupancy Aiolos (upper panel) or H3K27ac (lower panel) occupancy at transcription star site (TSS), gene body (+7 kb) and gene end (GE) of UHRF1 gene in H929, MM1.S or RPMI 8226 cells treated with DMSO or 1 μM POM for 24 hr. ChIP with control rabbit IgG (IgG) serves as a negative control. Error bars represent the SEM of technical triplicates. * P<0.05, ** P<0.01, **** P<0.0001 (Two-tailed unpaired Student's t-test).
FIG. 6A-6D. […] (6A) Immunocytochemistry assay of UHRF1 in H929 cells treated with DMSO or 1 μM POM for 48 hrs. (6B) qRT-PCR analysis of UHRF1 gene expression levels in indicated MM cells treated with indicated doses of POM for 3 days. Data was normalized to ACTB. Error bars represent the SEM from duplicate measurements. * P<0.05, ** P<0.01, *** P<0.001, **** P<0.0001 (Two-tailed Student's t-test). […]
Total RNA was extracted by RNeasy Mini Kit (Qiagen) and reverse transcribed by iScrip cDNA Synthesis Kit (Bio-rad). Quantitative real-time PCR (qPCR) was conducted on a VillA 7 System using the Power SYBR Green PCR Master Mix (Applied Biosystems). Gene expression values were calculated by normalization to Actb using the comparative CT method.

| Compound | response in treating AML at relapse [1] | UHRF1 protein expression change (mass spectrometry) (UHRF1) | UHRF1 gene expression (UHRF1 mRNA) |
| --- | --- | --- | --- |
| CT-011: anti-PD-1 antibody, a humanized antibody | failed to show response |  |  |
| O=C1CC[C@H](N2Cc3c(OCc4ccc(CN5CCOCC5)cc4)cccc3C2=O)C(=O)N1 [CC-220] |  | one of the most significantly downregulated proteins | downregulated |
